Tests used:
[1] = test system: 5′-AAAAAAAGAAAAAATIT-3′ (poly AT) DNA duplex; assay: FRET DNA melting, poly AT duplex; format: binding; conditions: fragments of 15, FIG. 3; duplex not specified
Method: (§1) FRET DNA melting studies were undertaken on 15 and 16 using two fluorescently labelled sequences. The sequences (FIG. 1) were designed to represent poly AT and poly GC sequences.
(§2) The short duplexes used in this FRET study are relatively unstable in the duplex form with a melting temperature below 30° C. so that, in the absence of ligand, a large part of the melting occurs below the starting temperature of the experiment. However, it can be observed that 15 stabilizes the duplex form, producing increases in melting temperature with ΔTm values of […] for 5′-AAAAAAAGAAAAAATIT-3′ (FIG. 2, top panel), and ˜25° C. (FIG. 2, bottom panel).
(§3) Oligonucleotides were obtained from ATDbio (Southampton, UK) in lyophilised form. […]
(§4) The reaction mixture was comprised of 4 μL of 250 mM phosphate buffer (final concentration of 50 mM), 4 μL flourophor and 4 μL quencher molecule of the appropriate oligonucleotide for a final concentration of 0.2 μM, 4 μL 5 M sodium chloride (final concentration of 1 M NaCl), and 4 μL of distilled H2O. […] This mixture was analysed without prior annealing.
(§5) Fluorescence melting profiles were measured using a Roche LightCycler using a total reaction volume of 20 μL. […] Annealing steps and melting steps were all recorded and changes in fluorescence were measured at 520 nm. […]

[2] = test system: DS3 DNA fragment; assay: DNA footprinting, DS3 DNA fragment; format: binding; conditions: DS3 DNA sequence
Method: The DNA sequence selectivity profile of the molecules was investigated using a modification of the previously established DNA footprinting assay. Following an overnight incubation of the ligand-DNA complexes, the mixture was mixed with strand separation buffer containing 10 mM EDTA, 10 mM NaOH, 0.1% bromophenol blue, 80% formamide and incubated at 100° C. for 3 min. The mixture was then immediately cooled on ice and run on an 8% denaturing gel.
The preparation of the DS3 DNA fragment (FIG. 5) and the “D” DNA fragment (FIG. 6) has been previously described. Briefly, the sequence which had been cloned into the BamHI site of pUC18 was obtained by cutting with HindIII and EcoRI. Radiolabelled DNA fragments were prepared by filling in the 3′-end of the HindIII site with [α-^32P]dATP using Klenow DNA polymerase (exo-).
The radiolabelled DNA fragment was separated from the remainder of the plasmid DNA on a 6% non-denaturing polyacrylamide gel. The gel (20 cm long, 0.3 mm thick) was run at 400 V in 1×TBE running buffer for about 1-2 h, until the bromophenol blue had run most of the way down the gel. The glass plates were separated and the position of the labelled DNA fragment was established by short (1 min) exposure to an X-ray film. The relevant band was then cut from the gel and the radiolabelled DNA eluted by adding 300 μL 10 mM Tris-HCl, pH 7.5 containing 0.1 mM EDTA and gently agitating overnight at room temperature. The eluted DNA was finally precipitated with ethanol and re-suspended in a suitable volume of 10 mM Tris-HCl, pH 7.5 containing 0.1 mM EDTA buffer so as to give at least 10 counts per second/μL on a hand-held Geiger counter. […]
Footprinting reactions were performed as previously described using the DNA fragments DS3, which contains tracts of AT/GC bases; and using the “D” DNA fragments which represents a random DNA sequence. […] After gel purification, the radiolabelled DNA was dissolved in 10 mM Tris-HCl pH 7.5 containing 0.1 mM EDTA, at a concentration of about 10 c.p.s per μL as determined on a hand held Geiger counter. […]

[3] = test system: 5′-[…]-3′ (poly GC) DNA duplex; assay: FRET DNA melting, poly GC duplex; format: binding; conditions: FRET melting, FIG. 2 bottom panel (poly GC duplex)
Method: as §1, §2, §3, §4, §5

[4] = test system: calf thymus DNA; conditions: cited from earlier work

In the case of `Cn1cc(N)cc1C(=O)Nc1ccc(-c2cc(C(=O)Nc3ccc(N)cc3)n(C)c2)cc1` [Compound 32, 4-Amino-N-(4-(5-((4-aminophenyl)carbamoyl)-1-methyl-1H-pyrrol-3-yl)phenyl)-1-methyl-1H-pyrrole-2-carboxamide], the “DNA stabilisation (FRET denaturation)” value [1] is reported as “failed to stabilise DNA”.

With `COc1cc2c(cc1OCCCC(=O)Nc1cc(C(=O)Nc3ccc(-c4cc(C(=O)Nc5ccc(N)cc5)n(C)c4)cc3)n(C)c1)N=C[C@@H]1CCCCN1C2=O` [Compound 15, (S)—N-(4-aminophenyl)-4-(4-(4-(4-((2-methoxy-12-oxo-6a,7,8,9,10,12-hexahydrobenzo[e]pyrido[1,2-a][1,4]diazepin-3-yl)oxy)butan-amido)-1-methyl-1H-pyrrole-2-carboxamido)phenyl)-1-methyl-1H-pyrrole-2-carboxamide] the “DNA binding pattern (footprint)” value [2] was “bind to tracts of DNA where a GC base is present” and the “ΔTm (increase in melting temperature)” value [3] was roughly 25 °C.

For `Cc1ccc2c(c1O)NC(O)C1CC(/C=C/C(N)=O)=CN1C2=O` (centres unmarked) [anthramycin], the “thermal stabilization (ΔTm)” value [4] is listed as 13.1 °C.

In the case of `COc1cc2c(cc1O)N=C[C@@H]1CCCCN1C2=O` [Compound 28, (S)-3-Hydroxy-2-methoxy-7,8,9,10-tetrahydrobenzo[e]-pyrido[1,2-a][1,4]diazepin-12(6aH)-one], the “DNA stabilisation (FRET denaturation)” value [1] is reported as “failed to stabilise DNA”.

— patent US20210371413A1, “POLYCYCLIC AMIDES AS CYTOTOXIC AGENTS” (FEMTOGENIX LIMITED, priority 2018, published 2021)
